According to patent US20120041009A1, “PYRIMIDINE COMPOUND AND ITS USE IN PEST CONTROL” (SUMITOMO CHEMICAL COMPANY, LIMITED, priority 2009, published 2012):

Test system: Tetranychus urticae
Assay: Test Example 2: spray test against Tetranychus urticae on brush bean (Phaseolus vulgaris)
Format: in vivo
Conditions: comparative compound, same conditions as in Test Example 2 (500 ppm); day not given
Procedure: The formulation of each of the present compounds (1), (3), (5), (7) to (11), (13), (14), (18), (20), (22), (24), (26), (27), (29), (30) and (33) to (35) obtained in Formulation Example 1 was diluted with water so as to adjust the concentration of the active ingredient to 500 ppm to prepare a test spray solution.
About sixty female imagines of Tetranychus urticae were released on brush bean (Phaseolus vulgaris) in the primary leaf stage, which had been potted in a polyethylene cup for 7 days after the seeding. One day after release of female imagines of Tetranychus urticae, 30 ml (per cup) of the test spray solution was sprayed over the brush bean seedling.
On the 8th and 13th day after spraying, the numbers of survival Tetranychus urticae on the leaf of the brush bean plant were examined, and the control rate was calculated by the following equation.
Control rate=100×{1−(number of survival Tetranychus urticae in treated section)/(number of survival Tetranychus urticae in non-treated section)}

O=c1[nH]c(-c2cncnc2C(F)(F)F)no1 [comparative compound (C)]
control value: less than 30%
